Here are results for 10 molecules from patent publication US5698522A, “6-position modified decapeptide LHRH antagonists” (Abbott Laboratories, priority 1995, dated 1997).

The target in the experiment is T1, LHRH receptor (Rattus norvegicus, UniProt P30969).
T1 construct: endogenous in cells
T1 sequence (P30969 1-327): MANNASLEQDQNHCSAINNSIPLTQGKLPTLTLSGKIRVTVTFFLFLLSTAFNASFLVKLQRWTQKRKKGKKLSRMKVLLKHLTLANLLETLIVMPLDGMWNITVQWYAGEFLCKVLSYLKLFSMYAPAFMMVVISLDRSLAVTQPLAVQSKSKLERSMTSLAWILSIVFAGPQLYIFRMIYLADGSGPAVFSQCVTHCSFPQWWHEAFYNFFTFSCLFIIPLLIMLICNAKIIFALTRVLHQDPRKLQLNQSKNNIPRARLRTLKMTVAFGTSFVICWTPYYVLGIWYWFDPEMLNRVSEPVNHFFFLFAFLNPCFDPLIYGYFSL
The experiment in a line: in vitro LHRH antagonist potency (pA2) against the agonist leuprolide. It counts as cell-based. The following applies: negative logarithm of the antagonist concentration which shifts the response curve produced by the agonist leuprolide to two-fold higher concentration. The protocol: Representative compounds of the present invention were evaluated in in vitro tests for receptor binding (pKI) and for LHRH antagonist potency (pA2). The tests employed the methods detailed in F. Haviv, et al., J. Med. Chem., 32: 2340-2344 (1989). The receptor binding affinities (pKI) are the negative logarithms of the equilibtirum dissociation constants (pA2) are the negative logarithms of the concentration of antagonist which shift the response curve roduced by the agonist leuprolide to two-fold higher concentration. (Leuprolide is the LHRH agonist having the structure 5-oxo-Pro^1 -His^2 -Trp^3 -Ser^4 -Tyr^5 -D-Leu^6 -Leu^7 -Arg^8 -Pro^9 -NHEt and is disclosed and claimed in U.S. Pat. No. 4,005,063.) Typically pA2 values of 9.5 or greater are indicative of good LHRH antagonist potency.

Where a SMILES comes first, the peptide text is derived from it. Side-chain parts run from the residue outwards. [ ]: non-standard residue; d: D form. The star is where a group is joined. NMePhe(4-NH(5-NH2-Trz-3-yl)) = CN[C@@H](Cc1ccc(Nc2n[nH]c(N)n2)cc1)C(=O)O; Shikimoyl = O=C(C1=C[C@@H](O)[C@@H](O)[C@H](O)C1)*; Quinoline3carbonyl = O=C(c1cnc2ccccc2c1)*; dPhe(4-Cl) = N[C@H](Cc1ccc(Cl)cc1)C(=O)O; d2Nal = N[C@H](Cc1ccc2ccccc2c1)C(=O)O; Lys(iPr) = CC(C)NCCCC[C@H](N)C(=O)O; NMeY = CN[C@@H](Cc1ccc(O)cc1)C(=O)O; Pyrazinecarbonyl = O=C(c1cnccn1)*; d3Pal = N[C@H](Cc1cccnc1)C(=O)O; Salicyloyl = O=C(c1ccccc1O)*; Nicotinoyl = O=C(c1cccnc1)*; X1 = O=C(c1cc2ccccc2cc1O)*; X4 = Nc1nc(NCC(=O)*)n[nH]1; dOrn = NCCC[C@@H](N)C(=O)O; 2Furoyl = O=C(c1ccco1)*; azaGly = NNC(=O)O; Sar = CNCC(=O)O

The Kb is the affinity of an antagonist, worked out from how it opposes an agonist. Consider `CC(=O)N[C@H](Cc1ccc2ccccc2c1)C(=O)N[C@H](Cc1ccc(Cl)cc1)C(=O)N[C@H](Cc1cccnc1)C(=O)N[C@@H](CO)C(=O)N(C)[C@@H](Cc1ccc(O)cc1)C(=O)N[C@H](CCCCNC(=O)CNC(=O)c1ccccc1O)C(=O)N[C@@H](CC(C)C)C(=O)N[C@@H](CCCCNC(C)C)C(=O)N1CCC[C@H]1C(=O)N[C@H](C)C(N)=O` [Example 19b, NAc-D2Nal^1 -D4ClPhe^2 -D3Pal^3 -Ser^4 -NMeTyr^5 -DLys[N-epsilon-Gly-Salicyl]^6 -Leu^7 -Lys(N-epsilon-Isopropyl)^8 -Pro^9 -DAla^10 NH2] (Ac-[d2Nal][dPhe(4-Cl)][d3Pal]S[NMeY][dK]([Gly-Salicyloyl])L[Lys(iPr)]P[dA]-NH2), for which the Kb is 0.00661 nM.

On to `CC(=O)N[C@H](Cc1ccc2ccccc2c1)C(=O)N[C@H](Cc1ccc(Cl)cc1)C(=O)N[C@H](Cc1cccnc1)C(=O)N[C@@H](CO)C(=O)N(C)[C@@H](Cc1ccc(O)cc1)C(=O)N[C@H](CCCCNC(=O)CNC(=O)c1cnccn1)C(=O)N[C@@H](CC(C)C)C(=O)N[C@@H](CCCNC(=N)N)C(=O)N1CCC[C@H]1C(=O)N[C@H](C)C(N)=O` [Example 51e, NAc-D2Nal^1 -D4ClPhe^2 -D3Pal^3 -Ser^4 -NMeTyr^6 -DLys(N-epsilon-Gly-2-Pyrazinecarbonyl)^6 -Leu^7 -Arg^8 -Pro^9 -DAla^10 NH2] (Ac-[d2Nal][dPhe(4-Cl)][d3Pal]S[NMeY][dK]([Gly-Pyrazinecarbonyl])LRP[dA]-NH2), for which the Kb is 0.00692 nM.

Turning to `CC(=O)N[C@H](Cc1ccc2ccccc2c1)C(=O)N[C@H](Cc1ccc(Cl)cc1)C(=O)N[C@H](Cc1cccnc1)C(=O)N[C@@H](CO)C(=O)N(C)[C@@H](Cc1ccc(O)cc1)C(=O)N[C@H](CCCNC(=O)CNC(=O)c1cccnc1)C(=O)N[C@@H](CC(C)C)C(=O)N[C@@H](CCCNC(=N)N)C(=O)N1CCC[C@H]1C(=O)N[C@H](C)C(N)=O` [Example 49a, NAc-D2Nal^1 -D4ClPhe^2 -D3Pal^3 -Ser^4 -NMeTyr^5 -DOrn(N-epsilon-Gly-Nicotinyl)^6 -Leu^7 -Arg^8 -Pro^9 -DAla^10 NH2] (Ac-[d2Nal][dPhe(4-Cl)][d3Pal]S[NMeY][dOrn]([Gly-Nicotinoyl])LRP[dA]-NH2), the Kb is 0.0155 nM.

With `CC(=O)N[C@H](Cc1ccc2ccccc2c1)C(=O)N[C@H](Cc1ccc(Cl)cc1)C(=O)N[C@H](Cc1cccnc1)C(=O)N[C@@H](CO)C(=O)N(C)[C@@H](Cc1ccc(O)cc1)C(=O)N[C@H](CCCCNC(=O)CNC(=O)C1=C[C@@H](O)[C@@H](O)[C@H](O)C1)C(=O)N[C@@H](CC(C)C)C(=O)N[C@@H](CCCNC(=N)N)C(=O)N1CCC[C@H]1C(=O)N[C@H](C)C(N)=O` [Example 17, NAc-D2Nal^1 -D4ClPhe^2 -D3Pal^3 -Ser^4 -NMeTyr^5 -DLys(N-epsilon-Gly-Shikimyl)^6 -Leu^7 -Arg^8 -Pro^9 -DAla^10 NH2] (Ac-[d2Nal][dPhe(4-Cl)][d3Pal]S[NMeY][dK]([Gly-Shikimoyl])LRP[dA]-NH2), the Kb was 0.00724 nM.

Turning to `CC(=O)N[C@H](Cc1ccc2ccccc2c1)C(=O)N[C@H](Cc1ccc(Cl)cc1)C(=O)N[C@H](Cc1cccnc1)C(=O)N[C@@H](CO)C(=O)N(C)[C@@H](Cc1ccc(O)cc1)C(=O)N[C@H](CCCCNC(=O)CNC(=O)c1cccnc1)C(=O)N[C@@H](CC(C)C)C(=O)N[C@@H](CCCCNC(C)C)C(=O)N1CCC[C@H]1C(=O)N[C@H](C)C(N)=O` [Example 1, NAc-D2Nal^1 -D4ClPhe^2 -D3Pal^3 -Ser^4 -NMeTyr^5 -DLys(N-epsilon-Gly-Nicotinyl)^6 -Leu^7 -Lys(N-epsilon-Isopropyl)^8 -Pro^9 -DAla^10 NH2] (Ac-[d2Nal][dPhe(4-Cl)][d3Pal]S[NMeY][dK]([Gly-Nicotinoyl])L[Lys(iPr)]P[dA]-NH2), the Kb was 0.00355 nM.

Turning to `CC(=O)N[C@H](Cc1ccc2ccccc2c1)C(=O)N[C@H](Cc1ccc(Cl)cc1)C(=O)N[C@H](Cc1cccnc1)C(=O)N[C@@H](CO)C(=O)N(C)[C@@H](Cc1ccc(O)cc1)C(=O)N[C@H](CCCCNC(=O)NNC(=O)c1cc2ccccc2cc1O)C(=O)N[C@@H](CC(C)C)C(=O)N[C@@H](CCCCNC(C)C)C(=O)N1CCC[C@H]1C(=O)N[C@H](C)C(N)=O` [Example 5d, NAc-D2Nal^1 -D4ClPhe^2 -D3Pal^3 -Ser^4 -NMeTyr^5 -DLys[N-epsilon-Azagly-(3-OH-2-Naphthoyl)]^6 -Leu^7 -Lys(N-epsilon-Isopropyl)^8 -Pro^9 -DAla^10 NH2] (Ac-[d2Nal][dPhe(4-Cl)][d3Pal]S[NMeY][dK]([azaGly-X1])L[Lys(iPr)]P[dA]-NH2), the Kb is 0.055 nM.

In the case of `CC(=O)N[C@H](Cc1ccc2ccccc2c1)C(=O)N[C@H](Cc1ccc(Cl)cc1)C(=O)N[C@H](Cc1cccnc1)C(=O)N[C@@H](CO)C(=O)N(C)[C@@H](Cc1ccc(O)cc1)C(=O)N[C@H](CCCCNC(=O)[C@@H](CO)NC(=O)c1cnc2ccccc2c1)C(=O)N[C@@H](CC(C)C)C(=O)N[C@@H](CCCNC(=N)N)C(=O)N1CCC[C@H]1C(=O)N[C@H](C)C(N)=O` [Example 50d, NAc-D2Nal^1 -D4ClPhe^2 -D3Pal^3 -Ser^4 -NMeTyr^5 -DLys(N-epsilon-DSer-3-Quinolinyl)^6 -Leu^7 -Arg^8 -Pro^9 -DAla^10 NH2] (Ac-[d2Nal][dPhe(4-Cl)][d3Pal]S[NMeY][dK]([dS-Quinoline3carbonyl])LRP[dA]-NH2), the Kb is 0.0479 nM.

For `CC(=O)N[C@H](Cc1ccc2ccccc2c1)C(=O)N[C@H](Cc1ccc(Cl)cc1)C(=O)N[C@H](Cc1cccnc1)C(=O)N[C@@H](CO)C(=O)N(C)[C@@H](Cc1ccc(O)cc1)C(=O)N[C@H](CCCCNC(=O)NNC(=O)c1cccnc1)C(=O)N[C@@H](CC(C)C)C(=O)N[C@@H](CCCCNC(C)C)C(=O)N1CCC[C@H]1C(=O)N(C)CC(N)=O` [Example 60, NAc-D2Nal^1 -D4ClPhe^2 -D3Pal^3 -Ser^4 -NMeTyr^5 -DLys(N-epsilon-Azagly-Nicotinyl)^6 -Leu^7 -Lys(N-epsilon-Isopropyl)^8 -Pro^9 -Sar^10 NH2] (Ac-[d2Nal][dPhe(4-Cl)][d3Pal]S[NMeY][dK]([azaGly-Nicotinoyl])L[Lys(iPr)]P[Sar]-NH2), the Kb was 0.0282 nM.

As to `CC(=O)N[C@H](Cc1ccc2ccccc2c1)C(=O)N[C@H](Cc1ccc(Cl)cc1)C(=O)N[C@H](Cc1cccnc1)C(=O)N[C@@H](CO)C(=O)N(C)[C@@H](Cc1ccc(O)cc1)C(=O)N[C@H](CCCCNC(=O)NNC(=O)c1ccco1)C(=O)N[C@@H](CC(C)C)C(=O)N[C@@H](CCCNC(=N)N)C(=O)N1CCC[C@H]1C(=O)N[C@H](C)C(N)=O` [Example 37a, NAc-D2Nal^1 -D4ClPhe^2 -D3Pal^3 -Ser^4 -NMeTyr^5 -DLys(N-epsilon-Azagly-2-Furoyl)^6 -Leu^7 -Arg^8 -Pro^9 -DAla^10 NH2] (Ac-[d2Nal][dPhe(4-Cl)][d3Pal]S[NMeY][dK]([azaGly-2Furoyl])LRP[dA]-NH2), the Kb is 0.0166 nM.

For the molecule `CC(=O)N[C@H](Cc1ccc2ccccc2c1)C(=O)N[C@H](Cc1ccc(Cl)cc1)C(=O)N[C@H](Cc1cccnc1)C(=O)N[C@@H](CO)C(=O)N(C)[C@@H](Cc1ccc(Nc2n[nH]c(N)n2)cc1)C(=O)N[C@H](CCCCNC(=O)CNc1n[nH]c(N)n1)C(=O)N[C@@H](CC(C)C)C(=O)N[C@@H](CCCCNC(C)C)C(=O)N1CCC[C@H]1C(=O)N[C@H](C)C(N)=O` [Example 63, NAc-D2Nal^1 -D4ClPhe^2 -D3Pal^3 -Ser^4 -NMePhe(Atz)^5 -DLys(N-epsilon-N'-Gly-Atz)^6 -Leu^7 -Lys(N-epsilon-Isopropyl)^8 -Pro^9 -DAla^10 NH2] (Ac-[d2Nal][dPhe(4-Cl)][d3Pal]S[NMePhe(4-NH(5-NH2-Trz-3-yl))][dK](X4)L[Lys(iPr)]P[dA]-NH2), the Kb was 0.00447 nM.
